According to patent US20260285801A1, “LIPID NANOPARTICLE FOR TARGETED DELIVERY OF THERAPEUTIC PAYLOADS” (Trustees of Tufts College, priority 2023, published 2026):

Legend:
[1] = LNP size and polydispersity index by dynamic light scattering (Zetasizer Nano ZS); format: physicochemical; details: LNP with mRNA payload formulated with the lipid; active lipid/Cholesterol/DOPC/DMG-PEG 16.8/4.0/2.0/1.0; Lipids:mRNA 25:1; PBS pH 7.4, 25° C.
Procedure: (§1) RNA working solutions (0.134 mg/ml) were prepared in 25 mM sodium acetate buffer using DNase/RNase-free distilled water. Lipid stock solutions (10 mg/mL) were freshly prepared with active lipids or helper lipids (e.g., cholesterol, DOPC or DSPC, or ALC-0159) in ethanol. Reagents were mixed by vortexing and sonicating until the lipids were completely dissolved. A lipid mixture was first prepared by combining the active lipids (e.g., ionizable lipids of the present disclosure) and helper lipids into one vial and mixing thoroughly. Lipid nanoparticles were then formed by mixing the RNA working solution (0.134 mg/ml) and the lipid mixture at 3:1 volume ratio, either manually (for smaller scale) or by Precision Igniter microfluidic device. The formulation solution was transferred into a 300 kDa MWCO Float-A-Lyzer G2 Dialysis Device and dialyzed against at least 1000-folds volume of 50 mM Tris buffer overnight at 4° C. The LNP solution was sterilized with a 0.22 μm filter.
(§2) For LNP characterization, size and polydispersity index (PDI) were determined by dynamic light scattering using a Zetasizer Nano ZS. 10 μL of LNP suspension was transferred to a low-volume cuvette containing 900 μL of Ca^2+ and Mg^2+ free PBS at pH 7.4. Refractive index was set to […] and temperature was set to 25° C. Encapsulation efficiency (EE %) was measured using a fluorescence plate-based assay employing the Ribogreen reagent (Invitrogen) as per PNI Ribogreen assay protocol 16. This assay measures the quantity of mRNA in samples with intact LNPs to determine the quantity of unencapsulated RNA as well as in LNP samples disrupted by triton X-100 to measure the total RNA. EE % is calculated as the difference between the total RNA and the unencapsulated RNA divided by the total RNA.

[2] = Encapsulation efficiency and mRNA quantity by Ribogreen fluorescence plate assay; format: physicochemical; details: LNP with mRNA payload formulated with the lipid, 16.8/4.0/2.0/1.0, Lipids:mRNA 25:1; for EE %: (total RNA - unencapsulated RNA)/total RNA
Procedure: as §1, §2

female adult BALB/c mice = experiment: IV injection of Luc mRNA/LNP, whole body bioluminescence by IVIS imaging; format: in vivo; details: single i.v., 5 μg mRNA, 6 hours post injection; for delivery of the luciferase mRNA to the liver in vivo (luciferase intensity, IVIS): LNPs of L88, L854, L855 compared, FIGS. 4A-5B
Procedure: All animal experiments were conducted in accordance with the approved animal protocols. LNPs were formulated with lipids and mRNA encoding Luciferase (Luc) based on TABLE 3. LNPs comprising 5 μg mRNA and 50 μg active lipids (e.g., ionizable lipids) were injected intravenously (i.v.) to female adult BALB/c mice (6-8 wk. old). Six hours post injection, 100 μL of luciferin K salt (15 mg/mL in PBS) was administered to the mice through intraperitoneal injections. The mice were then imaged using the In Vivo Imaging System (IVIS) and the total flux of areas of interest was quantified. FIGS. 2A-2G illustrate representative IVIS data using the LNPs formulated with active lipids from TABLE 4. […] FIGS. 4A-7B show further analysis of the IVIS results. In FIGS. 4A-4B and FIGS. 5A-5B, the lipid nanoparticles were formulated with luciferase mRNA and lipids L88, L854, and L855, respectively. The experiment was conducted in duplicates. […] Existing lipid formulations in the industry were used as controls in the experiment. For example, lipids provided herein were compared to ALC-0315 (Pfizer) and SM-102 (Moderna).

| PDI [1] | Size (nm) [1] [nm] | [mRNA] Ug/ml [2] [Ug/ml] | EE % [2] [%] | SMILES | delivery of the luciferase mRNA to the liver in vivo (luciferase intensity, IVIS) (female adult BALB/c mice) | luciferase mRNA delivery to the liver compared to ALC-0315 (female adult BALB/c mice; FIGS. 6A-6B) | luciferase mRNA delivery compared to SM-102 (female adult BALB/c mice; FIGS. 7A-7B) |
| --- | --- | --- | --- | --- | --- | --- | --- |
| 0.105 | 125.1 | 91 | 48 | CC/C=C\CCCCOC(=O)CCN(CCCN(C)CCCN(CCC(=O)OCCOC(=O)OCC(CCCC)CCCCCC)CCC(=O)OCCOC(=O)OCC(CCCC)CCCCCC)CCC(=O)OCCOC(=O)OCC(CCCC)CCCCCC (stereo not shown) [Lipid L0830] |  |  |  |
| 0.125 | 99.86 | 78.9 | 95.1 | CCCCCCC(CCCC)COC(=O)CCOC(=O)CCN(CCC(=O)OCCC(=O)OCC(CCCC)CCCCCC)CCN(C)CCN(CCC(=O)OCCC(=O)OCC(CCCC)CCCCCC)CCC(=O)OCCC(=O)OCC(CCCC)CCCCCC (stereo not shown) [Lipid L0855] | more efficient delivery of the luciferase mRNA to the liver |  | more luciferase mRNA delivery than SM-102 |

| SMILES | PDI [1] | Size (nm) [1] [nm] | [mRNA] Ug/ml [2] [Ug/ml] | EE % [2] [%] | delivery of the luciferase mRNA to the liver in vivo (luciferase intensity, IVIS) (female adult BALB/c mice) | luciferase mRNA delivery to the liver compared to ALC-0315 (female adult BALB/c mice; FIGS. 6A-6B) | luciferase mRNA delivery compared to SM-102 (female adult BALB/c mice; FIGS. 7A-7B) |
| --- | --- | --- | --- | --- | --- | --- | --- |
| CCCCCCC(CCCC)COC(=O)CCOC(=O)CCN(CCCN(C)CCCN(CCC(=O)OCCC(=O)OCC(CCCC)CCCCCC)CCC(=O)OCCC(=O)OCC(CCCC)CCCCCC)CCC(=O)OCCC(=O)OCC(CCCC)CCCCCC (stereo not shown) [Lipid L0854] | 0.098 | 120.3 | 77.7 | 94.6 | more efficient delivery of the luciferase mRNA to the liver | more luciferase mRNA delivery to the liver than ALC-0315 |  |
